Usually EC50 stands for the midpoint of the concentration-response curve. Lower therefore signals higher potency in that assay. What is called AUC(0-t) is exposure summed from dosing to a finite time, without extrapolation to infinity. Usually Cmax stands for the peak of the concentration-time curve. A word on the clearance: it is a measure of how efficiently the substance is removed, as volume per time. As usually defined, the half-life is how long it takes for the measured level to halve. Lower therefore signals fast loss. In general, IC50 refers to the concentration that inhibits the measured activity by half. A low value points to higher potency.

Structures are written as SMILES.

These results are taken from patent US20240246959A1, “BENZIMIDAZOLE DERIVATIVE AND PREPARATION METHOD THEREFOR AND MEDICAL USE THEREOF” (Shenzhen Salubris Pharmaceuticals Co., Ltd., priority 2020, published 2024).

For one series, the target named is T1, human GLP-1 R (Homo sapiens, UniProt P43220).
T1 construct: expressed in transfected cells
The series is described as follows: cAMP signal activation in human GLP1R cells (hGLP1R-U2OS, HTRF). The series is classed as cell-based. On the procedure: A cell line stably expressing human GLP1 R (hGLP1R-U2OS) was used in this experiment. The cells were cultured in a growth medium (complete medium, DMEM+10% FBS+500 μg/mL G418 (Promega)) in an incubator at 37° C. and has 5% CO2 saturated humidity.
hGLP1R-U2OS was inoculated into 384-well plate with 1.0×10^4 cells/well (5 μL) (cell working solution: DMEM+0.1% BSA+1 mM IBMX (available from Bide Pharmatech Ltd.)), and was placed in an incubator at 37° C. and held for 30 min. The compounds to be tested were diluted stage-by-stage with Stimulation Buffer 1 (1×) in the kit, and the diluted compounds were added to the culture plate with 5 μL/well. They were incubated in an incubator at 37° C. for 30 min. Then, 5 μL/well of cAMP-d2 prepared with Lysis & Detection buffer and 5 μL/well of Anti CAMP-Cryptate working solution were added successively, and they were incubated at room temperature for 60 min before detection.
The ratio of signal emitted by donor to […] in each well was calculated as follows: HTRF rate=signal at 665 nm/signal at 620 nm×104, and then the HTRF rate was converted into a reaction rate (%). The concentration-response curve of each Example compound was created by a 4-parameter equation as Y=Bottom+(Top−Bottom)/(1+10^((Log IC50−X)*HillSlope)), and the half maximal (50%) effective concentration (EC50) was calculated.
In general terms: In TR-FRET formats the signal depends on donor and acceptor labels being close together.

A short description of series [1]: Pharmacokinetic study on rat. The series is classed as in vivo, SD rats. The following applies: for F: 5 mg/kg p.o vs 1 mg/kg i.v; for AUC(0-t) / Cmax / clearance / half-life: male, Sprague-Dawley (SD), plasma. An excerpt:
• SD rats: male, 180-250 g, purchased from Beijing Vital River Laboratory Animal Technology Co., Ltd. • Reagents: DMSO (dimethyl sulfoxide), PEG-400 (polyethylene glycol 400), physiological saline, heparin, acetonitrile, formic acid, and propranolol (internal standard), all of which are commercially available. • Instruments: Thermo Fisher Scientific LC-MS (U300 UPLC, TSQ QUANTUMN ULTRA triple quadrupole mass spectrometer).
A compound was weighed and dissolved in a DMSO-PEG-400-physiological saline (5:60:35, v/v/v) system. After the rats were administered with the compound intravenously or by gavage, 200 μL of venous blood samples were collected at 15 min, 30 min, 1 h, 2 h, 5 h, 7 h, and 24 h (for i.v. group an additional collection was performed at 5 min) in heparinized EP tubes respectively, which were centrifuged at 12,000 rpm for 2 min, and the plasma was frozen at −80° C. for further testing. A certain amount of the test substance was precisely weighed and dissolved in DMSO to obtain a stock solution with a concentration of 2 mg/mL. An appropriate amount of the stock solution of the compound was accurately pipetted and diluted with acetonitrile to prepare a standard series solution. 20 μL of each of the above standard series solution was accurately pipetted, added with 180 μL of blank plasma, and vortexed mixed to prepare plasma samples corresponding to plasma concentrations of 0.3, 1, 3, 10, 30, 100, 300, 1000, 3000 ng/mL. Two-sample analysis was performed for each concentration to establish a standard curve. 30 μL of plasma (for samples that are obtained at 5 min, 15 min, 30 min, and 1 h after intravenous administration, the plasma were diluted 10 times) was taken, added with 200 μL of a solution of internal standard propranolol in acetonitrile (50 ng/ml), and vortexed mixed. The mixture was then added with 100 μL of pure water, and vortexed and mixed again. It was centrifuged at 4000 rpm for 5 min, and the supernatant was collected for LC-MS analysis. LC-MS detection conditions were as follows. • Chromatographic column: Thermo Scientific HYPERSIL GOLD C-18 UPLC column, 100*2.1 mm, 1.7 μm. • Mobile phase: water (with 0.1% formic acid)-acetonitrile; gradient elution was performed according to the table below.
After blood drug concentrations was detected by LC-MS, WinNonlin 6.1 software was used to calculate pharmacokinetic parameters based on non-compartmental model.

Series [2] deals with T2, hERG potassium ion channel (Homo sapiens, UniProt Q12809).
T2 construct: expressed in transfected cells
The series is described as follows: Effect on hERG potassium ion channel (CHO-hERG, manual patch clamp). The series is classed as cell-based. As for the experimental part: A cell line CHO-hERG from ovary of Chinese hamster that stably expresses hERG potassium channel was used in this experiment. The cells were cultured in F12 complete medium containing 10% FBS, 1% antibiotics (G418), and 89 μg/mL hygromycin. The recovery medium was a F12 medium containing 10% FBS. Culture was performed at 37° C. and under 5% CO2.
The inhibitory activity of the compounds of the present invention in series gradient concentrations on the potassium channel in CHO-hERG was determined by manual patch clamp system.
For orientation: The hERG channel carries a current that helps repolarise heart muscle cells.

T1 sequence (P43220 24-463): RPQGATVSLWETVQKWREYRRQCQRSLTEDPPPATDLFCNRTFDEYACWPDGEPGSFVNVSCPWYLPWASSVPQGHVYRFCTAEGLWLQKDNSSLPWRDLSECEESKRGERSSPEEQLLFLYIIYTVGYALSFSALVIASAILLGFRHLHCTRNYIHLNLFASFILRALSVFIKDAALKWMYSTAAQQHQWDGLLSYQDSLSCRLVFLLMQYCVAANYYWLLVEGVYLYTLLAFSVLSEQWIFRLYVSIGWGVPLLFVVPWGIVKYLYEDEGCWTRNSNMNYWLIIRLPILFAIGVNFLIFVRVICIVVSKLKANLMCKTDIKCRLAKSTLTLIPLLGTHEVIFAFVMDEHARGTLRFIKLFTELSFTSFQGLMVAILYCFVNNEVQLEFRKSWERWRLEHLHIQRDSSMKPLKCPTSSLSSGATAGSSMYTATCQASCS
T2 sequence (Q12809 whole entry): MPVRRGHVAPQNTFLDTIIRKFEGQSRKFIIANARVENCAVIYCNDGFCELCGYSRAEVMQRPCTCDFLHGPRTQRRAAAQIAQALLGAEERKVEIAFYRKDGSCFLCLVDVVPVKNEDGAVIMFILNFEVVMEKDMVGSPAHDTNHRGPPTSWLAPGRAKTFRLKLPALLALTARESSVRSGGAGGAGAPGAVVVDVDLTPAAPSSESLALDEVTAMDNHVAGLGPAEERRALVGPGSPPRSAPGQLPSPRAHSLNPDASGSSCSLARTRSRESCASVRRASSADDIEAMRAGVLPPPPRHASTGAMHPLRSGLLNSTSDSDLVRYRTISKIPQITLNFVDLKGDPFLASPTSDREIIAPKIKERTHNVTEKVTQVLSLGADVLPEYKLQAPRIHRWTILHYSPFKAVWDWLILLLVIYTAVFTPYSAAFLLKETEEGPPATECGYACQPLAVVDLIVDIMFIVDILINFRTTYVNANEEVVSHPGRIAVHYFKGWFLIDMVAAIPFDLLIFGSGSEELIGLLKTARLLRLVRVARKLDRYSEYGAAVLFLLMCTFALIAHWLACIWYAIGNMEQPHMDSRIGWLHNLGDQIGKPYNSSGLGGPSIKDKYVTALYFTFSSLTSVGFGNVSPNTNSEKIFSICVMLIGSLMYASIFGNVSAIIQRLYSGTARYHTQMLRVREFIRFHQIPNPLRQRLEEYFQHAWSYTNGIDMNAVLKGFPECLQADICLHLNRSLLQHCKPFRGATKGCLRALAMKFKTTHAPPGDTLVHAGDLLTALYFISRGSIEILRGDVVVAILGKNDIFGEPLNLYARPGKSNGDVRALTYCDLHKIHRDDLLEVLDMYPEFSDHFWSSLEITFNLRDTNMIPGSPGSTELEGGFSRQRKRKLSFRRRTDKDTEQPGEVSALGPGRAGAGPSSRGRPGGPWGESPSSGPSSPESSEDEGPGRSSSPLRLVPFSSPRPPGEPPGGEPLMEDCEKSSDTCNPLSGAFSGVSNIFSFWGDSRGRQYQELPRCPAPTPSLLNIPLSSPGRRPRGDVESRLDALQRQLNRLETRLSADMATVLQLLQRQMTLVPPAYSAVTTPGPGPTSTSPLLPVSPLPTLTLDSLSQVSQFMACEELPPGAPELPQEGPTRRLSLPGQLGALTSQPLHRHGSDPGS

In the case of `C[C@@H](c1nc2ccc(C(=O)O)cc2n1C[C@@H]1CCO1)N1CCC(c2cccc(OCc3cc(F)ccc3F)n2)CC1` [Example 5, 2-((S)-1-(4-(6-((2,5-difluorobenzyl)oxy)pyridin-2-yl)piperidin-1-yl)ethyl)-1-(((S)-oxetan-2-yl)methyl)-1H-benzo[d]imidazol-6-carboxylic acid], the EC50 at human GLP-1 R was found to be 1.04 nM. Moreover, the F in series [1] is recorded as 72.8%. In series [1] (iv, 1 mg/kg, i.v), the AUC(0-t) was found to be 5770 ng·h/mL, the Cmax was determined as 4730 ng/mL, the clearance came out at 2.88 mL/min/kg and the half-life is 3.87 h. For the same molecule, in series [1] (po, 5 mg/kg, p.o), the AUC(0-t) was 21000 ng·h/mL, the highest level (Cmax) was 3470 ng/mL and the half-life was 2.76 h.
At human GLP-1 R, `C[C@@H](c1nc2ccc(C(=O)O)nc2n1C[C@@H]1CCO1)N1CCC(c2cccc(OCc3ccc(Cl)cc3F)n2)CC1` [Example 12, 2-((S)-1-(4-(6-((4-chloro-2-fluorobenzyl)oxy)pyridin-2-yl)piperidin-1-yl)ethyl)-3-(((S)-oxetan-2-yl)methyl)-3H-imidazolo[4,5-b]pyridin-5-carboxylic acid] registered a concentration for a half-maximal effect (EC50) of 3.89 nM. In series [1], this molecule gave an F of 168.2%. In series [1] (iv, 1 mg/kg, i.v), this molecule had an exposure AUC(0-t) of 1700 ng·h/mL, a Cmax of 2250 ng/mL, a clearance of 9.79 mL/min/kg and a half-life of 0.87 h. Moreover, in series [1] (po, 5 mg/kg, p.o), the AUC(0-t) was determined as 14300 ng·h/mL, the Cmax stood at 3780 ng/mL and the half-life was 2.69 h.
`C[C@@H](c1nc2ccc(C(=O)O)cc2n1C[C@@H]1CCO1)N1CCN(c2cccc(OCc3ccc(C#N)cc3F)n2)CC1` [Example 20A, 2-((S)-1-(4-(6-((4-cyano-2-fluorobenzyl)oxy)pyridin-2-yl)piperazin-1-yl)ethyl)-1-(((S)-oxetan-2-yl)methyl)-1H-benzo[d]imidazol-6-carboxylic acid] had an EC50 at human GLP-1 R of 4.66 nM. Moreover, in series [1], the F is recorded as 46.4%. In series [1] (iv, 1 mg/kg, i.v), the exposure AUC(0-t) stood at 539 ng·h/mL, the highest concentration (Cmax) amounted to 1290 ng/mL, the clearance was determined as 30.7 mL/min/kg and the half-life was 0.31 h. In series [1] (po, 5 mg/kg, p.o), this molecule showed an exposure AUC(0-t) of 1250 ng·h/mL, a maximum concentration (Cmax) of 348 ng/mL and a half-life of 1.17 h. The same molecule had a half-inhibitory concentration (IC50) in series [2] greater than 30000 nM.
`C[C@@H](c1nc2ccc(C(=O)O)nc2n1C[C@@H]1CCO1)N1CCN(c2cccc(OCc3ccc(C#N)cc3F)n2)CC1` [Example 51A, 2-((S)-1-(4-(6-((4-cyano-2-fluorobenzyl)oxy)pyridin-2-yl)piperazin-1-yl)ethyl)-3-(((S)-oxetan-2-yl)methyl)-3H-imidazo[4,5-b]pyridin-5-carboxylic acid] returned an EC50 on human GLP-1 R of 2.28 nM. Also, the F in series [1] came to 34.3%. Besides, in series [1] (iv, 1 mg/kg, i.v), the exposure AUC(0-t) is 613 ng·h/mL, the Cmax was 1990 ng/mL, the clearance was determined as 27.2 mL/min/kg and the half-life is 0.71 h. In series [1] (po, 5 mg/kg, p.o), this molecule had an AUC(0-t) of 1050 ng·h/mL, a maximum concentration (Cmax) of 323 ng/mL and a half-life of 1.06 h.
For the molecule `C[C@@H](c1nc2ccc(C(=O)O)nc2n1C[C@@H]1CCO1)N1CCN(c2cccc(OCc3ccc(Cl)cc3F)n2)CC1` [Example 52A, 2-((S)-1-(4-(6-((4-chloro-2-fluorobenzyl)oxy)pyridin-2-yl)piperazin-1-yl)ethyl)-3-(((S)-oxetan-2-yl)methyl)-3H-imidazo[4,5-b]pyridin-5-carboxylic acid], the EC50 at human GLP-1 R came out at 2 nM. The molecule also registered a F in series [1] of 76.6%. In series [1] (iv, 1 mg/kg, i.v), this molecule had an exposure AUC(0-t) of 1130 ng·h/mL, a Cmax of 2050 ng/mL, a clearance of 14.7 mL/min/kg and a half-life of 0.95 h. In series [1] (po, 5 mg/kg, p.o), this molecule gave an AUC(0-t) of 4330 ng·h/mL, a maximum concentration (Cmax) of 1160 ng/mL and a half-life of 2.77 h.
